Results reported in PubChem BioAssay (NCI).
Where “and” joins values, the source holds several entries; their conditions need not be identical. Identical values can stand only once.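 Grown in 96-well plates, cells were treated for 48 hours with each compound at five concentrations. Insufficient inhibition: endpoint recorded as highest concentration tested. Here, GI50 denotes the concentration required for 50% inhibition of growth. The concentration for full growth arrest is given as TGI.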

Key:
Assay in all cases: inhibition of tumour cell growth, NCI panel, 48 h
SNB-19 CNS = test system: SNB-19 CNS
OVCAR-5 ovarian = test system: OVCAR-5 ovarian
HCT-15 colon = test system: HCT-15 colon
KM12 colon = test system: KM12 colon
MDA-MB-231 breast = test system: MDA-MB-231 breast
U251 CNS = test system: U251 CNS
SK-OV-3 ovarian = test system: SK-OV-3 ovarian
SK-MEL-5 melanoma = test system: SK-MEL-5 melanoma
COLO 205 colon = test system: COLO 205 colon
786-0 renal = test system: 786-0 renal
SF-295 CNS = test system: SF-295 CNS
HL-60(TB) leukemia = test system: HL-60(TB) leukemia
MALME-3M melanoma = test system: MALME-3M melanoma
TK-10 renal = test system: TK-10 renal
PC-3 prostate = test system: PC-3 prostate
MDA-N = test system: MDA-N
SK-MEL-28 melanoma = test system: SK-MEL-28 melanoma
RPMI-8226 leukemia = test system: RPMI-8226 leukemia
DLD-1 colon = test system: DLD-1 colon
SF-539 CNS = test system: SF-539 CNS
CCRF-CEM leukemia = test system: CCRF-CEM leukemia
RXF 393 renal = test system: RXF 393 renal
XF 498 CNS = test system: XF 498 CNS
ACHN renal = test system: ACHN renal
SR leukemia = test system: SR leukemia
HS 578T breast = test system: HS 578T breast
HT29 colon = test system: HT29 colon
HOP-92 NSCLC = test system: HOP-92 NSCLC
NCI/ADR-RES ovarian = test system: NCI/ADR-RES ovarian
A498 renal = test system: A498 renal
OVCAR-8 ovarian = test system: OVCAR-8 ovarian
SNB-78 CNS = test system: SNB-78 CNS
KM20L2 colon = test system: KM20L2 colon
M14 melanoma = test system: M14 melanoma
A549 NSCLC = test system: A549 NSCLC
MCF7 breast = test system: MCF7 breast
SF-268 CNS = test system: SF-268 CNS
UACC-257 melanoma = test system: UACC-257 melanoma
IGROV1 ovarian = test system: IGROV1 ovarian
LOX IMVI melanoma = test system: LOX IMVI melanoma
SN12C renal = test system: SN12C renal
MOLT-4 leukemia = test system: MOLT-4 leukemia
NCI-H226 lung = test system: NCI-H226 lung
OVCAR-3 ovarian = test system: OVCAR-3 ovarian
HCT-116 colon = test system: HCT-116 colon
HOP-62 NSCLC = test system: HOP-62 NSCLC
T-47D breast = test system: T-47D breast
NCI-H23 lung = test system: NCI-H23 lung
SW-620 colon = test system: SW-620 colon
SNB-75 CNS = test system: SNB-75 CNS
NCI-H522 lung = test system: NCI-H522 lung
BT-549 breast = test system: BT-549 breast
UO-31 renal = test system: UO-31 renal
SK-MEL-2 melanoma = test system: SK-MEL-2 melanoma
EKVX NSCLC = test system: EKVX NSCLC
UACC-62 melanoma = test system: UACC-62 melanoma
DMS 273 small cell lung = test system: DMS 273 small cell lung
OVCAR-4 ovarian = test system: OVCAR-4 ovarian
K-562 leukemia = test system: K-562 leukemia
MDA-MB-435 = test system: MDA-MB-435
DU-145 prostate = test system: DU-145 prostate
NCI-H460 lung = test system: NCI-H460 lung
HCC-2998 colon = test system: HCC-2998 colon
M19-MEL melanoma = test system: M19-MEL melanoma
HOP-18 NSCLC = test system: HOP-18 NSCLC
LXFL 529 NSCLC = test system: LXFL 529 NSCLC
DMS 114 small cell lung = test system: DMS 114 small cell lung

Q: With `O=c1c(Cl)c(Cl)cnn1-c1ccccc1` as the compound, how does the GI50 (SNB-19 CNS) read?
A: The GI50 was 4.93 µM and > 23.2 µM.

Q: What about the TGI (SNB-19 CNS) of the same compound?
A: The TGI was 13.7 µM and > 41.7 µM.

Q: What about the GI50 (OVCAR-5 ovarian) of the same compound?
A: Its GI50 is 19.7 µM and 9.53 µM.

Q: And the TGI (OVCAR-5 ovarian)?
A: Its TGI is 38.8 µM and 19.8 µM.

Q: What about the TGI (HCT-15 colon) of the same compound?
A: Its TGI is 3.51 µM and 5.38 µM.

Q: And the TGI (KM12 colon)?
A: Its TGI is 21.3 µM and 23.5 µM.

Q: What about the TGI (MDA-MB-231 breast) of the same compound?
A: Its TGI is 3.34 µM.

Q: And the TGI (U251 CNS)?
A: Its TGI is 3.37 µM and 7.42 µM.

Q: And the GI50 (SK-OV-3 ovarian)?
A: The GI50 was 8.36 µM and 3.44 µM.

Q: And the TGI (SK-OV-3 ovarian)?
A: The TGI was 21.2 µM and 10.6 µM.

Q: And the GI50 (SK-MEL-5 melanoma)?
A: The GI50 was 2.42 µM and 7.82 µM.

Q: And the TGI (SK-MEL-5 melanoma)?
A: Its TGI is 5.66 µM and 14.2 µM.

Q: What about the GI50 (COLO 205 colon) of the same compound?
A: Its GI50 is 1.74 µM and 3.54 µM.

Q: And the TGI (COLO 205 colon)?
A: The TGI was 3.62 µM and 7.92 µM.

Q: What about the TGI (786-0 renal) of the same compound?
A: The TGI was 11.1 µM and 12.1 µM.

Q: What about the GI50 (SF-295 CNS) of the same compound?
A: Its GI50 is 5.18 µM and 16 µM.

Q: What about the TGI (SF-295 CNS) of the same compound?
A: The TGI was 9.7 µM and 32.3 µM.

Q: What about the GI50 (HL-60(TB) leukemia) of the same compound?
A: Its GI50 is 0.774 µM.

Q: And the TGI (HL-60(TB) leukemia)?
A: The TGI was 10.7 µM and 2.11 µM.

Q: What about the TGI (MALME-3M melanoma) of the same compound?
A: Its TGI is 7.91 µM and 9.73 µM.

Q: What about the TGI (TK-10 renal) of the same compound?
A: The TGI was 24.7 µM and 29.8 µM.

Q: And the GI50 (PC-3 prostate)?
A: Its GI50 is 5.42 µM and 1.77 µM.

Q: What about the TGI (PC-3 prostate) of the same compound?
A: The TGI was 12 µM and 3.23 µM.

Q: And the TGI (MDA-N)?
A: Its TGI is 6.77 µM and 3.65 µM.

Q: And the TGI (SK-MEL-28 melanoma)?
A: The TGI was 6.54 µM and 7.29 µM.

Q: And the TGI (RPMI-8226 leukemia)?
A: Its TGI is > 38.7 µM and 27 µM.

Q: And the TGI (DLD-1 colon)?
A: Its TGI is 2.84 µM and 5.22 µM.

Q: And the GI50 (SF-539 CNS)?
A: The GI50 was 4.74 µM and 9.8 µM.

Q: What about the TGI (SF-539 CNS) of the same compound?
A: Its TGI is 10.2 µM and 23.2 µM.

Q: What about the GI50 (CCRF-CEM leukemia) of the same compound?
A: Its GI50 is 0.825 µM and 1.8 µM.

Q: What about the TGI (CCRF-CEM leukemia) of the same compound?
A: Its TGI is 9.58 µM and 5.53 µM.

Q: What about the TGI (RXF 393 renal) of the same compound?
A: The TGI was 4.21 µM and 5.38 µM.

Q: What about the TGI (XF 498 CNS) of the same compound?
A: Its TGI is 5.47 µM.

Q: And the TGI (ACHN renal)?
A: The TGI was 11.6 µM and 13.5 µM.

Q: What about the TGI (SR leukemia) of the same compound?
A: The TGI was > 19.7 µM and 3.92 µM.

Q: And the TGI (HS 578T breast)?
A: Its TGI is 7.02 µM and 20.3 µM.

Q: What about the GI50 (HT29 colon) of the same compound?
A: The GI50 was 1.75 µM and 3.77 µM.

Q: What about the TGI (HT29 colon) of the same compound?
A: Its TGI is 3.38 µM and 8.06 µM.

Q: And the GI50 (HOP-92 NSCLC)?
A: Its GI50 is 1.98 µM and 7.58 µM.

Q: And the TGI (HOP-92 NSCLC)?
A: The TGI was 3.61 µM and 16 µM.

Q: What about the TGI (NCI/ADR-RES ovarian) of the same compound?
A: The TGI was 3.97 µM.

Q: And the TGI (A498 renal)?
A: The TGI was 31.6 µM and 31.2 µM.

Q: What about the TGI (OVCAR-8 ovarian) of the same compound?
A: Its TGI is 6.05 µM and 11.5 µM.

Q: What about the TGI (SNB-78 CNS) of the same compound?
A: Its TGI is 20.8 µM.

Q: And the GI50 (KM20L2 colon)?
A: The GI50 was 0.655 µM and 6.44 µM.

Q: And the TGI (KM20L2 colon)?
A: Its TGI is 24.5 µM and 15.7 µM.

Q: What about the TGI (M14 melanoma) of the same compound?
A: The TGI was 3.25 µM and 3.42 µM.

Q: What about the TGI (A549 NSCLC) of the same compound?
A: The TGI was 26.9 µM and 37.6 µM.

Q: And the TGI (MCF7 breast)?
A: Its TGI is 18.9 µM and 13.6 µM.

Q: And the TGI (SF-268 CNS)?
A: Its TGI is 15.7 µM and 25.6 µM.

Q: And the TGI (UACC-257 melanoma)?
A: The TGI was 14.1 µM and 48.4 µM.

Q: What about the GI50 (IGROV1 ovarian) of the same compound?
A: The GI50 was 1.81 µM and 7.02 µM.

Q: What about the TGI (IGROV1 ovarian) of the same compound?
A: The TGI was 3.37 µM and 21.5 µM.

Q: And the TGI (LOX IMVI melanoma)?
A: The TGI was 3.26 µM and 4.03 µM.

Q: And the TGI (SN12C renal)?
A: The TGI was 8.88 µM and 4.01 µM.

Q: What about the TGI (MOLT-4 leukemia) of the same compound?
A: The TGI was 7.19 µM and 4.14 µM.

Q: What about the TGI (NCI-H226 lung) of the same compound?
A: The TGI was 12.9 µM and 21.4 µM.

Q: And the TGI (OVCAR-3 ovarian)?
A: The TGI was 4.22 µM and 3.94 µM.

Q: And the TGI (HCT-116 colon)?
A: The TGI was 3.5 µM and 6.4 µM.

Q: And the TGI (HOP-62 NSCLC)?
A: The TGI was 16.7 µM and 32.1 µM.

Q: And the TGI (T-47D breast)?
A: The TGI was 16.4 µM and 5.04 µM.

Q: And the GI50 (NCI-H23 lung)?
A: The GI50 was 2.04 µM and 5.73 µM.

Q: And the TGI (NCI-H23 lung)?
A: The TGI was 5.68 µM and 13.3 µM.

Q: And the GI50 (SW-620 colon)?
A: Its GI50 is 2 µM.

Q: What about the TGI (SW-620 colon) of the same compound?
A: Its TGI is 5.5 µM.

Q: And the TGI (SNB-75 CNS)?
A: Its TGI is 5.71 µM and 29.7 µM.

Q: And the TGI (NCI-H522 lung)?
A: The TGI was 2.82 µM and 3.79 µM.

Q: And the TGI (BT-549 breast)?
A: Its TGI is 3.12 µM and 3.19 µM.

Q: And the TGI (UO-31 renal)?
A: The TGI was 8.91 µM and 7.47 µM.

Q: What about the TGI (SK-MEL-2 melanoma) of the same compound?
A: The TGI was 15.5 µM and 14.5 µM.

Q: What about the GI50 (EKVX NSCLC) of the same compound?
A: The GI50 was 5.44 µM and 15.4 µM.

Q: And the TGI (EKVX NSCLC)?
A: Its TGI is 10.5 µM and 33.4 µM.

Q: What about the TGI (UACC-62 melanoma) of the same compound?
A: Its TGI is 3.34 µM and 5.36 µM.

Q: And the GI50 (DMS 273 small cell lung)?
A: The GI50 was 2.03 µM and 5.59 µM.

Q: What about the TGI (DMS 273 small cell lung) of the same compound?
A: Its TGI is 3.94 µM and 12.4 µM.

Q: And the TGI (OVCAR-4 ovarian)?
A: Its TGI is 3.95 µM and 2.38 µM.

Q: And the GI50 (K-562 leukemia)?
A: Its GI50 is 2.13 µM.

Q: What about the TGI (K-562 leukemia) of the same compound?
A: Its TGI is 5.14 µM and 4.67 µM.

Q: And the TGI (MDA-MB-435)?
A: The TGI was 3.58 µM and 3.73 µM.

Q: And the TGI (DU-145 prostate)?
A: Its TGI is 28 µM and 27.8 µM.

Q: And the TGI (NCI-H460 lung)?
A: The TGI was 10.3 µM and 8.61 µM.

Q: What about the TGI (HCC-2998 colon) of the same compound?
A: The TGI was 9.66 µM and 6.39 µM.

Q: And the TGI (M19-MEL melanoma)?
A: The TGI was 11.7 µM and 8.03 µM.

Q: What about the TGI (HOP-18 NSCLC) of the same compound?
A: Its TGI is 22.8 µM and 21.9 µM.

Q: And the TGI (LXFL 529 NSCLC)?
A: The TGI was 11.9 µM and 3.13 µM.

Q: What about the TGI (DMS 114 small cell lung) of the same compound?
A: Its TGI is 5.76 µM and 3.09 µM.
